# Measurements as given in PMC10106456 (Communications Biology, 2023).
# Several values for one entry are separate records, joined by “and”; a condition that tells them apart may be missing. Equal values may be shown once. Read-outs that look alike come from different tables or passages of the source.
# What was measured:
# [1] = target: T1, Tet(X6) (Proteus genomosp. 6, UniProt A0A6I7DAX3); assay: Substrate degradation by scanning optical absorbance spectroscopy; format: biochemical, Proteus genomospecies; details: in the presence of Tet(X6), NADPH, and O2; 20 μM substrate, 2 h
# T1 sequence (A0A6I7DAX3 entry or part of it): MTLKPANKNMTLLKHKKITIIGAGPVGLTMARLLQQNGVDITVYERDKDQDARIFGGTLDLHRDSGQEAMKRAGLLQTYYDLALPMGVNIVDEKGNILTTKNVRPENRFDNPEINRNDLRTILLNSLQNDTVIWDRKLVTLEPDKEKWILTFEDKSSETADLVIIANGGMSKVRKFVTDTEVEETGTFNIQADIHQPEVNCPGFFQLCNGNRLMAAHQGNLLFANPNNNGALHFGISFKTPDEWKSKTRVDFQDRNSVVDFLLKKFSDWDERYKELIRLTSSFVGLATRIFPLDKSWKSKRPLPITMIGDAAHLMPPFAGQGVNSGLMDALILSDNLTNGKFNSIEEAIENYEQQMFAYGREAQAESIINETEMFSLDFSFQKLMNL
# Experimental: (§1) All in vitro kinetic assays were prepared open to air in non-degassed buffer solutions at room temperature. […] In vitro reactions were monitored by optical absorbance spectroscopy on an Agilent Cary 50 UV-visible spectrophotometer using polystyrene cuvettes. Reaction progress was monitored by optical absorbance spectroscopy (280−550 nm, 1 nm and 5 min intervals) over 2 h. […] The quenched samples were centrifuged (5000 rpm, 4 °C) for 5 min, and 600 μL of the resulting supernatant was mixed with an Fmoc-Ala internal standard (3.12 μM final concentration) and analyzed by LC-MS in positive ion mode (single trial). LC-MS was acquired using an Agilent 6130 single quadrupole instrument (ESI + ) with G1313 autosampler, G1315 diode array detector, and 1200 series solvent module with separation on a Phenomenex Gemini C18 column, 50 × 2 mm (5 um) fit with a guard column cassette. LCMS solvents were 0.1% formic acid in H2O (A) and 0.1% formic acid in acetonitrile (B). […] LCMS data were processed using ChemStation software version B.04.02 SP1. Extracted ion chromatograms (EICs) for the expected [M + H]^+ molecular ions corresponding to substrate and mono-hydroxylated product were normalized to the [M + H]^+ counts for an Fmoc-Ala internal standard.
# [2] = system: E. coli expressing Tet(X6); format: cell-based; details: pZE24-tetX6, panel concentrations in μg/mL per Supp. Data 3
# Experimental: (§2) For high expression, 1 mM IPTG fully relieves repression by LacI[44] thus only IPTG was used in whole-cell tests. Chemically-competent E. coli DH5αZ1 (Expressys) was transformed with these pZE24 constructs by heat shock. Minimum inhibitory concentrations (MICs) were measured as per Clinical and Laboratory Standards Institute (CLSI) guidelines. Substrates and inhibitors were dissolved in DMSO (20 mg/mL) then diluted to working concentrations in cation-adjusted Mueller-Hinton II broth supplemented with 50 μg/mL kanamycin (Supplementary Data 2). Antibiotic susceptibility testing panels were prepared in 96-well flat-bottom microplates (Corning) by two-fold serial dilution of the antibiotic of interest (Supplementary Data 3). […] Liquid cultures of each strain were grown to exponential phase then diluted to a standard concentration (OD600 = 0.0015, which is equivalent to double ~5 × 10^5 CFU/mL) and inoculated into each panel at a 1:1 ratio. […] Each strain-antibiotic/inhibitor combination was tested in triplicate, along with no-drug and no-cell controls. Inoculated panels were sealed with Breathe-Easy membranes (Sigma-Aldrich) and incubated at 37 °C for 20 h. MICs were scored by absorbance measurements at 600 nm (OD600) using the Synergy H1 microplate reader (Biotek Instruments, Inc).
# [3] = system: E. coli DH5αZ1 + pZE24 (empty); assay: Microbroth dilution antibiotic susceptibility test (MIC); format: cell-based; details: Escherichia coli, 20 h, drug alone
# Experimental: as §2
# [4] = system: E. coli DH5αZ1 + pZE24-tet(X6); assay: as above; format: cell-based; details: Escherichia coli
# Experimental: as §2
# [5] = system: E. coli DH5αZ1 + pZE24-tet(X7); assay: as above; format: cell-based; details: Escherichia coli, 20 h
# Experimental: as §2
# [6] = target: T1, Tet(X6); assay: Apparent Tet(X6) inhibitor IC50 (optical absorbance assay); format: biochemical, Proteus genomospecies; details: for IC50: Tet(X6); for Slope (velocity of substrate degradation in presence of aTC): trials 1-3
# Experimental: All experiments were prepared open to air in non-degassed buffer solutions at room temperature. […] Initial enzyme velocities were determined by linear regression using Agilent Cary WinUV Software over the linear range of the reaction (typically between 0 to 1 min). The velocities were plotted against the logarithm of inhibitor concentration, and apparent IC50 values were determined using nonlinear regression analysis in GraphPad Prism v6. Each set of experiments included a no-TDase control reaction which was used as the full enzyme inhibition velocity and assigned to an inhibitor concentration of 1 × 10^15, as well as a no-inhibitor control which was assigned an inhibitor concentration of 1 × 10^–15.
# [7] = target: T1, Tet(X6); details: for Slope (initial velocity of substrate degradation): trials 1-3, absorbance 400 nm (440 nm for aTC)
# Experimental: All experiments were prepared open to air in non-degassed buffer solutions at room temperature. […] Initial enzyme velocities were determined by linear regression using Agilent Cary WinUV Software over the linear range of the reaction (typically between 0 to 1 min), plotted against the concentration of the substrate, and fitted to the Michaelis–Menten or allosteric sigmoidal nonlinear regression equations using GraphPad Prism 6.
# [8] = system: E. coli expressing Tet(X7); assay: Checkerboard whole cell inhibition assay (tetracycline + anhydrotetracycline); format: cell-based; details: pZE24-tetX7, panel concentrations in μg/mL per Supp. Data 3
# Experimental: as §2
# [9] = system: E. coli DH5αZ1 pZE24-empty; assay: as above; format: cell-based
# Experimental: as §2
# [10] = target: T1, Tet(X6); assay: Substrate degradation by LC-MS (extracted ion counts); format: biochemical, Proteus genomospecies; details: Tet(X6) reaction of aTC
# Experimental: as §1
compound,measurement,setting,value
"Cc1c2c(c(O)c3c(O)cccc13)C(=O)[C@]1(O)C(=O)C(C(N)=O)=C(O)[C@@H](N(C)C)[C@@H]1C2 [aTC, anhydrotetracycline]",degradation observed by optical absorbance,[1],time-dependent decrease at 440 nm
same,ATC concentration inhibiting growth at fixed TET (Fig3a source data),[2]; TET 0,32
same,ATC concentration inhibiting growth at fixed TET (Fig3a source data),[2]; TET 1,32
same,ATC concentration inhibiting growth at fixed TET (Fig3a source data),[2]; TET 2,32
same,ATC concentration inhibiting growth at fixed TET (Fig3a source data),[2]; TET 4,32
same,ATC concentration inhibiting growth at fixed TET (Fig3a source data),[2]; TET 8,32
same,ATC concentration inhibiting growth at fixed TET (Fig3a source data),[2]; TET 16,16
same,ATC concentration inhibiting growth at fixed TET (Fig3a source data),[2]; TET 32,16
same,ATC concentration inhibiting growth at fixed TET (Fig3a source data),[2]; TET 64,16
same,ATC concentration inhibiting growth at fixed TET (Fig3a source data),[2]; TET 128,8
same,ATC concentration inhibiting growth at fixed TET (Fig3a source data),[2]; TET 256,0
same,MIC,[3],4 µg/mL
same,MIC,[4],32 µg/mL
same,MIC,[5],8 µg/mL
same,IC50,"[6]; IC50, aTC inhibition of ERA degradation, substrate ERA",9 ± 1 µM
same,IC50,"[6]; IC50, aTC inhibition of OMA degradation, substrate OMA",12 ± 4 µM
same,IC50,"[6]; IC50, aTC inhibition of TIG degradation, substrate TIG",2.2 ± 0.2 µM
same,Slope (velocity of substrate degradation in presence of aTC),"[6]; substrate Erav, log[aTC] μM 0.81",0.0443 and 0.0431 and 0.045
same,Slope (velocity of substrate degradation in presence of aTC),"[6]; substrate Erav, log[aTC] μM 1.41",0.0266 and 0.0254 and 0.0225
same,Slope (velocity of substrate degradation in presence of aTC),"[6]; substrate Erav, log[aTC] μM 1.72",0.0176 and 0.0178 and 0.0199
same,Slope (velocity of substrate degradation in presence of aTC),"[6]; substrate Erav, log[aTC] μM 2.07",0.0149 and 0.0154 and 0.0125
same,Slope (velocity of substrate degradation in presence of aTC),"[6]; substrate Erav, log[aTC] μM 2.16",0.007 and 0.0075 and 0.0083
same,Slope (velocity of substrate degradation in presence of aTC),"[6]; substrate Omad, log[aTC] μM 0.81",0.0132 and 0.0149 and 0.0223
same,Slope (velocity of substrate degradation in presence of aTC),"[6]; substrate Omad, log[aTC] μM 1.41",0.0111 and 0.0097 and 0.0109
same,Slope (velocity of substrate degradation in presence of aTC),"[6]; substrate Omad, log[aTC] μM 1.72",0.0072 and 0.0051 and 0.0089
same,Slope (velocity of substrate degradation in presence of aTC),"[6]; substrate Omad, log[aTC] μM 2.16",0.0042 and 0.007 and 0.0037
same,Slope (velocity of substrate degradation in presence of aTC),"[6]; substrate Tig, log[aTC] μM 0.81",0.0454 and 0.0455 and 0.0453
same,Slope (velocity of substrate degradation in presence of aTC),"[6]; substrate Tig, log[aTC] μM 1.41",0.0221 and 0.024 and 0.0233
same,Slope (velocity of substrate degradation in presence of aTC),"[6]; substrate Tig, log[aTC] μM 1.72",0.0213 and 0.0168 and 0.0171
same,Slope (velocity of substrate degradation in presence of aTC),"[6]; substrate Tig, log[aTC] μM 2.07",0.0168 and 0.0154 and 0.0122
same,Slope (velocity of substrate degradation in presence of aTC),"[6]; substrate Tig, log[aTC] μM 2.16",0.0135 and 0.0131 and 0.0184
same,factor by which apparent kcat is lower than for tetracycline antibiotic substrates,[7]; Tet(X6),≤ 7
same,Slope (initial velocity of substrate degradation),[7]; [Sub] 1.94805 μM,0.0038 and 0.0045 and 0.003
same,Slope (initial velocity of substrate degradation),[7]; [Sub] 3.8961 μM,0.0098 and 0.0073 and 0.0072
same,Slope (initial velocity of substrate degradation),[7]; [Sub] 6.16883 μM,0.0097 and 0.0093 and 0.009
same,Slope (initial velocity of substrate degradation),[7]; [Sub] 8.11688 μM,0.0054 and 0.0074 and 0.0086
same,Slope (initial velocity of substrate degradation),[7]; [Sub] 20.1299 μM,0.0109 and 0.0073 and 0.0099
same,Slope (initial velocity of substrate degradation),[7]; [Sub] 29.8701 μM,0.0108 and 0.0104 and 0.0106
same,"Michaelis-menten nonlinear fit, best-fit Vmax","[7]; supplementary source data, Tet(X6) 0.4 µM",0.01106
same,ATC concentration inhibiting growth at fixed TET (Fig3a source data),[8]; TET 0,8
same,ATC concentration inhibiting growth at fixed TET (Fig3a source data),[8]; TET 1,8
same,ATC concentration inhibiting growth at fixed TET (Fig3a source data),[8]; TET 2,4
same,ATC concentration inhibiting growth at fixed TET (Fig3a source data),[8]; TET 4,4
same,ATC concentration inhibiting growth at fixed TET (Fig3a source data),[8]; TET 8,2
same,ATC concentration inhibiting growth at fixed TET (Fig3a source data),[8]; TET 16,0.5
same,ATC concentration inhibiting growth at fixed TET (Fig3a source data),[8]; TET 32,0
same,ATC concentration inhibiting growth at fixed TET (Fig3a source data),"[9]; TET 0, panel concentrations in μg/mL per Supp. Data 3",4
same,ATC concentration inhibiting growth at fixed TET (Fig3a source data),"[9]; TET 1, panel concentrations in μg/mL per Supp. Data 3",0
same,Percent Ion Count (relative %),[10]; time 0 min,100%
same,Percent Ion Count (relative %),[10]; time 5 min,95.7447%
same,Percent Ion Count (relative %),[10]; time 30 min,80%
same,Percent Ion Count (relative %),[10]; time 60 min,64.9123%
same,Percent Ion Count (relative %),[10]; time 90 min,74.5098%
same,Percent Ion Count (relative %),[10]; time 120 min,75.7895%
